Reference: PMC6311682, “Design, Synthesis, and Biological Evaluation of 2-Nitroimidazopyrazin-one/-es with Antitubercular and Antiparasitic Activity” (Journal of Medicinal Chemistry, 2018)
In brackets after ≈: the same amount, converted by molar mass. Where two headings read alike, the source gives them in different places.

Assays:
[1] = Mammalian cytotoxicity assay (resazurin), HepG2; conditions: human, HepG2 cells
[2] = Mammalian cytotoxicity assay (resazurin), HEK293; conditions: human, HEK293 cells
[3] = tested on: E. histolytica (HM1:IMSS); test: ATP-bioluminescence cell growth and survival assay, E. histolytica trophozoites; format: cell-based; conditions: Entamoeba histolytica
[4] = Kinetic solubility determination by LC-UV; conditions: room temperature, 1% DMSO
[5] = Broth microdilution MIC assay, ESKAPE pathogens; format: cell-based; conditions: S. aureus, E. coli, K. pneumoniae, A. baumannii, P. aeruginosa; read-out: antibacterial MIC ESKAPE
[6] = tested on: ESKAPE pathogens S. aureus (ATCC 43300), E. coli (ATCC 25922), K. pneumoniae (ATCC 700603), A. baumannii (ATCC 19606), P. aeruginosa (ATCC 27853); test: Broth microdilution MIC assay, ESKAPE pathogens; format: cell-based
[7] = tested on: C. difficile (630, ATCC BAA-1382); test: Broth microdilution MIC assay, C. difficile; format: cell-based, Clostridium difficile; conditions: 630 ATCC BAA-1382, median MIC; for MIC: Clostridioides difficile, ATCCBAA1382, read-out: antibacterial MIC C. difficile
[8] = tested on: L. donovani MHOM/IN/80/DD8 (ATCC50212); test: L. donovani DD8 intracellular (THP-1) amastigote assay; format: cell-based; conditions: Leishmania donovani
[9] = tested on: C. albicans (ATCC 90028) and C. neoformans (H99, ATCC 208821); test: Broth microdilution MIC assay, fungi; format: cell-based; conditions: for MIC: Candida albicans, read-out: antifungal MIC
[10] = read-out: antiparasitic IC50 E. histolytica
[11] = read-out: antiparasitic pIC50 ± SE E. histolytica (converted)
[12] = PBS, pH 7.4, Solubility µM (PBS), PBS pH 7.4, 24 h
[13] = water, Solubility µM (H2O), 24 h
[14] = read-out: antiparasitic IC50 L. donovani
[15] = read-out: antiparasitic pIC50 ± SE L. donovani (converted)

Structure (SMILES)	CC50 at 24 h [1]	CC50 at 24 h [2]	IC50 [3, 10]	IC50 [3, 11]	solubility at 24 h [4, 12]	solubility at 24 h [4, 13]	MIC [5]	antibacterial MIC ESKAPE [6]	antibacterial MIC C. difficile [7]	MIC [7]	IC50 [8, 14]	IC50 [8, 15]	antifungal MIC [9]	MIC [9]
O=C(NCc1ccccc1)c1nc([N+](=O)[O-])c[nH]1 [16b, N-Benzyl-5-nitro-1H-imidazole-2-carboxamide]	> 100 µM	> 100 µM	–	–	–	–	–	–	–	–	–	–	–	–
Cc1ccc(CNC(=O)c2nc([N+](=O)[O-])c[nH]2)cc1 [16d, N-(4-Methylbenzyl)-5-nitro-1H-imidazole-2-carboxamide]	> 100 µM	> 100 µM	–	–	–	–	–	–	–	–	–	–	–	–
O=c1[nH]ccn2cc([N+](=O)[O-])nc12 [17a, 2-Nitroimidazo[1,2-a]pyrazin-8(7H)-one]	–	–	> 25 µM	> 25.1 µM	> 200 µM	> 200 µM	> 32 µg/mL	>32 µg/mL	>64 µg/mL	> 64 µg/mL	> 80 µM	> 79.4 µM	–	–
Cc1ccc(Cn2ccn3cc([N+](=O)[O-])nc3c2=O)cc1 [17d, 7-(4-Methylbenzyl)-2-nitroimidazo[1,2-a]pyrazin-8(7H)-one]	–	–	–	–	< 5 µM	< 5 µM	> 32 µg/mL	>32 µg/mL	–	–	> 80 µM	> 79.4 µM	–	–
O=c1c2nc([N+](=O)[O-])cn2ccn1Cc1ccccc1OC(F)(F)F [17i, 2-Nitro-7-(2-(trifluoromethoxy)benzyl)imidazo[1,2-a]pyrazin-8(7H)-one]	–	–	> 50 µM	> 50.1 µM	< 5 µM	< 5 µM	> 32 µg/mL	>32 µg/mL	–	–	> 40 µM	> 39.8 µM	–	–
O=c1c2nc([N+](=O)[O-])cn2ccn1Cc1ccc(F)cc1F [17j, 7-(2,4-Difluorobenzyl)-2-nitroimidazo[1,2-a]pyrazin-8(7H)-one]	–	–	> 50 µM	> 50.1 µM	< 5 µM	< 5 µM	> 32 µg/mL	>32 µg/mL	–	–	> 40 µM	> 39.8 µM	–	–
O=c1c2nc([N+](=O)[O-])cn2ccn1Cc1ccccn1 [17k, 2-Nitro-7-(pyridin-2-ylmethyl)imidazo[1,2-a]pyrazin-8(7H)-one, 1TFA]	–	–	> 50 µM	> 50.1 µM	–	–	> 32 µg/mL	>32 µg/mL	>64 µg/mL	> 64 µg/mL	> 80 µM	> 79.4 µM	–	–
CC(c1ccc(F)cc1)n1ccn2cc([N+](=O)[O-])nc2c1=O (stereo not shown) [17l, 7-(1-(4-Fluorophenyl)ethyl)-2-nitroimidazo[1,2-a]pyrazin-8(7H)-one]	–	–	> 50 µM	> 50.1 µM	< 10 µM	< 10 µM	> 32 µg/mL	>32 µg/mL	>64 µg/mL	> 64 µg/mL	> 80 µM	> 79.4 µM	–	–
CC(=O)OCCn1ccn2cc([N+](=O)[O-])nc2c1=O [17o, 2-(2-Nitro-8-oxoimidazo[1,2-a]pyrazin-7(8H)-yl)ethyl Acetate]	–	–	> 50 µM	> 50.1 µM	–	–	> 32 µg/mL	>32 µg/mL	>64 µg/mL	> 64 µg/mL	> 80 µM	> 79.4 µM	–	–
O=c1c2nc([N+](=O)[O-])cn2ccn1CCO [17p, 7-(2-Hydroxyethyl)-2-nitroimidazo[1,2-a]pyrazin-8(7H)-one]	–	–	> 50 µM	> 50.1 µM	> 200 µM	> 200 µM	> 32 µg/mL	>32 µg/mL	>64 µg/mL	> 64 µg/mL	> 80 µM	> 79.4 µM	–	–
O=c1c2nc([N+](=O)[O-])cn2ccn1CCN1CCOCC1 [17q, 4-(2-(2-Nitro-8-oxoimidazo[1,2-a]pyrazin-7(8H)-yl)ethyl)morpholin-4-ium 2,2,2-Trifluoroacetate]	–	–	> 50 µM	–	–	–	> 32 µg/mL	>32 µg/mL	>64 µg/mL	> 64 µg/mL	> 80 µM	> 79.4 µM	–	–
O=C(Cn1ccn2cc([N+](=O)[O-])nc2c1=O)N1CCOCC1 [17r, 7-(2-Morpholino-2-oxoethyl)-2-nitroimidazo[1,2-a]pyrazin-8(7H)-one]	–	–	> 50 µM	> 50.1 µM	194 ± 0.526 µM (≈ 59.6 µg/mL)	192 ± 1.51 µM (≈ 59 µg/mL)	> 32 µg/mL	>32 µg/mL	>64 µg/mL	> 64 µg/mL	> 80 µM	> 79.4 µM	–	–
NC(=O)Cn1ccn2cc([N+](=O)[O-])nc2c1=O [17s, 2-(2-Nitro-8-oxoimidazo[1,2-a]pyrazin-7(8H)-yl)acetamide]	–	–	> 50 µM	> 50.1 µM	> 200 µM	> 200 µM	> 32 µg/mL	>32 µg/mL	>64 µg/mL	> 64 µg/mL	> 80 µM	> 79.4 µM	–	–
O=[N+]([O-])c1cn2ccnc(OCc3ccccc3OC(F)(F)F)c2n1 [18i, 2-Nitro-8-((2-(trifluoromethoxy)benzyl)oxy)imidazo[1,2-a]pyrazine]	–	–	> 50 µM	> 50.1 µM	< 5 µM	< 5 µM	> 32 µg/mL	>32 µg/mL	–	–	–	–	–	–
O=[N+]([O-])c1cn2ccnc(OCCc3ccc(OC(F)(F)F)cc3)c2n1 [18m, 2-Nitro-8-(4-(trifluoromethoxy)phenethoxy)imidazo[1,2-a]pyrazine]	–	–	–	–	–	–	> 32 µg/mL	>32 µg/mL	–	64 µg/mL (≈ 174 µM)	–	–	–	–
O=c1c2nc([N+](=O)[O-])cn2cc(-c2ccccc2)n1CCO [24d, 7-(2-Hydroxyethyl)-2-nitro-6-phenylimidazo[1,2-a]pyrazin-8(7H)-one]	–	–	–	–	164 ± 21 µM (≈ 49.2 µg/mL)	163 ± 15 µM (≈ 48.9 µg/mL)	> 32 µg/mL	>32 µg/mL	>64 µg/mL	> 64 µg/mL	–	–	>32 µg/mL	> 32 µg/mL
Cc1cn2cc([N+](=O)[O-])nc2c(OCc2cccc(OC(F)(F)F)c2)n1 [25k]	> 100 µM	> 100 µM	–	–	–	–	> 32 µg/mL	–	–	–	> 40 µM	> 39.8 µM	–	> 32 µg/mL
Cc1c(C)n2cc([N+](=O)[O-])nc2c(=O)n1Cc1cccc(OC(F)(F)F)c1 [26f, 5,6-Dimethyl-2-nitro-7-(3-(trifluoromethoxy)benzyl)imidazo[1,2-a]pyrazin-8(7H)-one]	25.6 to 80 µM	–	–	–	15.7 ± 0.404 µM (≈ 6 µg/mL)	15.9 ± 1.55 µM (≈ 6.08 µg/mL)	> 32 µg/mL	>32 µg/mL	–	–	–	–	>32 µg/mL	> 32 µg/mL
NC(=O)c1nc([N+](=O)[O-])cn1Cc1ccccc1 [28b]	> 100 µM	> 100 µM	–	–	–	–	–	–	–	–	–	–	–	–
Cc1ccc(Cn2cc([N+](=O)[O-])nc2C(N)=O)cc1 [28d]	> 100 µM	> 100 µM	–	–	–	–	–	–	–	–	–	–	–	–
